# Assays:
# [1] = system: head trauma in mice; experiment: Brain edema (tissue water content) after closed head injury in mice; format: in vivo
# Description: (§1) The cerebroprotective effect of mebicar was assessed in a model of head trauma in mice (Beni-Adani et al., 2001). This type of trauma produces brain edema (i.e. increase in water content), breakdown of the blood brain barrier (BBB) and clinical dysfunction. The clinical status of the mice is evaluated 1 and 24 hours after injury along with measurement of the extent of cerebral edema. The neurological deficit, assessed by a set of criteria termed the Neurological Severity Score (NSS), is maximal at 1 hour after the initiation of head trauma. The NSS slowly decreases over time from the initiation of head trauma, with the gradual spontaneous recovery of the mice.
# (i) Induction of closed head injury (CHI) in a mice model. Male Sabra mice (strain from Hebrew University of Jerusalem, Israel), weighing 35 to 45 g, were used. CHI was induced under ether anesthesia. A metal rod weighing 333 g was allowed to free fall from a prefixed height (at 3 cm for a mouse weighing 28-32 g) over the exposed skull covering the left hemisphere in the midcoronal plane. The tip of the rod is covered with silicone, and it delivers the impact to the head that is fixed on the bottom plane of the trauma device. Sham-operated mice were anesthetized, their skull exposed, but trauma was not induced. After CHI the mice were assigned to vehicle or mebicar treatment.
# (iii) Evaluation of water content (brain edema). The extent of cerebral edema was evaluated by determining the tissue water content in the injured hemisphere, as previously described (Beni-Adani et al., 2001). Briefly, mice were sacrificed 24 h after injury, the time of peak edema formation, and brain cortical samples of ˜20 mg were cut from the left (traumatized) and right (contralateral) hemispheres, from the site bordering the lesion. The right (non-injured) hemisphere was used as an internal control. Samples were weighed before and after drying in a desiccated oven for 24 h at 95° C. After weighing the “dried” sections, the brain water content was calculated as % H2O=[(wet weight−dry weight)×100]/wet weight.
# (iv) Evaluation of drug effect on brain edema. In order to evaluate the effect of a drug, and to do it in a “clinical-relevant” setting, the drug is given 1 h after the injury, immediately after the initial assessment of NSS. This protocol allows a homogenous distribution of the mice between the drug and vehicle treatments, and ensures similar severity of injury in both groups. NSS is then evaluated again at 24 h after injury, and ΔNSS is calculated. The mice are then sacrificed, their brain removed and cortical segments from the site of injury, and contralaterally, are taken for evaluation of edema, as described above in (iii). […]
# [2] = system: head trauma in mice; experiment: Clinical evaluation (Neurological Severity Score) after closed head injury in mice; format: in vivo; details: mebicar 750 mg/kg i.p., 5 mice out of 9, spontaneous recovery 2 out of 10 (20%)
# Description: as §1
# (i) Induction of closed head injury (CHI) in a mice model. […]
# (ii) Clinical evaluation of the mice after CHI. Mice were evaluated to define the severity of injury and functional recovery by using a set of clinical criteria. […]
# For assessment of posttraumatic neurological impairment, a Neurological Severity Score (NSS) previously described, modified and validated, was used (Shapira et al. 1988; Chen et al. 1996; Beni-Adani et al. 2001). […] The ΔNSS, calculated as the difference between NSS at 1 h and the NSS at any later time-point, is a parameter which reflects the degree of spontaneous recovery following brain injury, as described (Chen et al., 1996; Yatsiv et al., 2002; Beni-Adani et al., 2001). […]
# [3] = in vivo; cited from earlier work
# [4] = in vivo; cited from earlier work; remark: listed apart in the source
# [5] = system: stress and hypoxia; details: 100-1000 mg/kg, cited from earlier work
# [6] = system: neuroactive amino acids in the animal's brain; details: cited from earlier work
# [7] = system: experimental arrhythmias; details: in vivo; cited from earlier work
# [8] = system: shock; details: in vivo; cited from earlier work
# [9] = system: myocardial contractility; details: in vivo; cited from earlier work
structure (smiles),measurement,setting,value
"CN1C(=O)N(C)C2C1N(C)C(=O)N2C (centres unmarked) [mebicar, 2,4,6,8-tetramethyl-2,4,6,8-tetraazabicyclo[3.3.0]-octane-3,7-dione]",Water content in the brain % (contralateral hemisphere),"[1]; mice, closed head injury, mebicar 750 mg/kg intraperitoneally 1 h after injury, 24 h after injury, contralateral hemisphere, M ± SE",77.9 ± 0.27%
same,Water content in the brain % (traumatized area),"[1]; mice, closed head injury, mebicar 750 mg/kg intraperitoneally 1 h after injury, 24 h after injury, traumatized area, M ± SE",80.7 ± 0.41%
same,effect on water content of the contralateral hemisphere,"[1]; traumatized mice, mebicar 750 mg/kg i.p.",decreased water content up to normal parameters
same,less water accumulated in the traumatized hemisphere of the brain,"[1]; traumatized mice, mebicar 750 mg/kg i.p., versus untreated traumatized mice",About 35%
same,recovery in clinical function (share of mice),[2],55.5%
same,metabolism,[3],not metabolized
same,time to leave the organism,[3],≤ 24 h
same,toxicity,[4],extremely low toxicity
same,effect on parameters of body function under extreme conditions,[5]; stress and hypoxia,protective action
same,"effect on muscle tone, movement coordination, working capacity",[5]; tested animals,"without affecting the muscle tone, movement coordination or working capacity"
same,change of balance of neuroactive amino acids in the brain,[6],raising the content of gamma-butyric acid
same,effect in experimental arrhythmias,[7],protective action
same,effect in shock; acid-base and oxygen homeostasis,[8],antishock action
same,effect on myocardial contractility,[9],increase the myocardial contractility

# Reference: patent publication US20080227838A1, “Method for neuroprotection with glycoluril derivatives” (Cereprotec Incorporated, priority 2007, published 2008)
